Test results reported in patent US12404304B1, “Telomerase reverse transcriptase (TERT) expression enhancing compounds and methods for using the same” (Sierra Sciences, LLC, priority 2007, dated 2025).
Where two headings read alike, the source gives them in different places.

Legend:
[1] = system: human TERT expression (hTERT mRNA); experiment: Quantitative real-time RT-PCR of hTERT mRNA expression (Ct, transcripts) in compound-treated cells; format: cell-based
Outline: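 Read-out is cycle threshold, the cycle at which probe fluorescence released by Taq 5′-nuclease activity crosses a set level; Ct falls as hTERT mRNA rises. cDNA of treated and untreated cells was compared, with starting transcripts quantified against a known-cDNA standard curve.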

viable cells in culture = experiment: Cell viability assay (CellTiter-Glo Luminescent Cell Viability Assay, ATP quantitation, percent of vehicle control)

| Structure (SMILES) | Average Number of hTERT Transcripts [1] | Average Cell Viability after 24 Hours (% DMSO) (viable cells in culture) | Average Number of hTERT Transcripts ([1]; quantitative real-time RT-PCR) |
| --- | --- | --- | --- |
| O=C(O)c1ccc(NC(=S)NC(=O)c2cccc(Cl)c2)cc1 [compound 1379] | 12.37 | 82.14 | – |
| O=c1c2c([nH]c3c(-c4ccc(Cl)cc4)cnn13)CCC2 [compound 1160] | – | 59.19 | 54.13 |
| CCCCc1c(C)[nH]c2c(-c3ccc(Cl)cc3)c(C)nn2c1=O [compound 1167] | – | 97.27 | 66.71 |
| COC(=O)c1ccc(NC(=O)CSc2nnc(CNC(=O)c3ccccc3)n2C)cc1 [compound 1404] | 10.87 | 104.14 | – |
| Cc1cc(CNC(=O)c2cc(-c3cccs3)on2)no1 [compound 1503] | 28.94 | 108.11 | – |
| CCCCN1C(C(=O)c2ccccc2)=C(OC(C)=O)c2ccccc2S1(=O)=O [compound 1214] | – | 55.08 | 32.75 |
| CCCn1c(=O)n(CC)c(=O)c2ccccc21 [compound 1359] | – | 104.81 | 13.21 |
| CCOC(=O)c1sc(-n2nc(C)c(Cc3ccc(Cl)cc3)c2O)nc1C [compound 1131] | – | 75.57 | 95.19 |
| Cc1cc(C)[n+]2nc3n(-c4ccccc4)c(C)cc(C)c-3c2n1 [compound 1227] | – | 77.50 | 72.86 |
| COc1cc(CNC2CCCC2)ccc1OCCO [compound 1450] | 8.24 | 96.61 | – |
| Cc1ccc(S(=O)(=O)NC(=O)c2ccccc2O)cc1 [compound 1323] | – | 121.47 | 11.00 |
| C=CCN1C(C(=O)c2ccccc2)=C(OC(=O)c2ccc(Cl)cc2)c2ccccc2S1(=O)=O [compound 1209] | – | 91.26 | 21.73 |
| Cc1occc1C(=O)N/N=C/c1cc(I)cc(I)c1O [compound 1277] | – | 68.53 | 24.11 |
| Nc1ccc(OCCCc2ccccc2)cc1 [compound 1367] | – | 94.27 | 7.25 |
| CCOC(=O)COc1ccc(S(=O)(=O)Nc2ccc(C(=O)OC)cc2)cc1 [compound 1413] | 25.20 | 80.11 | – |
| COc1ccc(OCCCN2CCN(c3ccccc3OC)CC2)cc1 [compound 1382] | 6.08 | 98.31 | – |
| Cn1c(-c2nnc(SCC(=O)NCc3nc4ccccc4n3C)o2)cc2ccccc21 [compound 1516] | 127.39 | 87.09 | – |
| Brc1n[nH]c2ncnc(N3CCCC3)c12 [compound 1249] | – | 77.92 | 27.87 |
| O=C(NC(=S)Nc1cc([N+](=O)[O-])ccc1O)c1ccc(Br)o1 [compound 1418] | 42.80 | 94.19 | – |

| Structure (SMILES) | Average Number of hTERT Transcripts [1] | Average Cell Viability after 24 Hours (% DMSO) (viable cells in culture) | Average Number of hTERT Transcripts ([1]; quantitative real-time RT-PCR) |
| --- | --- | --- | --- |
| O=c1cc(Cc2ccccc2)[nH]c2c(-c3ccc(Cl)cc3)cnn12 [compound 1149] | – | 87.19 | 91.14 |
| O=C(NCCCn1ccnc1)c1cc(-c2ccccc2)on1 [compound 1522] | 345.10 | 80.72 | – |
| CCCC1=NN(c2ccc(C(=O)OCC)cc2)C(=O)C1 [compound 1484] | 16.52 | 62.51 | – |
| CCOC(=O)c1ccc(N2C(=O)c3[nH]nc(-c4ccccc4)c3C2c2ccccc2OC)cc1 (stereo not shown) [compound 1194] | – | 76.71 | 6.20 |
| COc1cc([N+](=O)[O-])cc2cc(C(=O)NCCCN3CCOCC3)c(=O)oc12 [compound 1311] | – | 92.83 | 4.38 |
| Oc1cc(CSc2ccc(Cl)cc2)nn1-c1ccccc1 [compound 1116] | – | 75.26 | 102.70 |
| CCc1c(C)nn(-c2nc3ccccc3s2)c1O [compound 1114] | – | 89.40 | 148.58 |
| O=C(O)c1ccc(NC(=S)NC(=O)c2ccccc2I)cc1 [compound 1384] | 7.88 | 84.52 | – |
| COc1ccc(CCNC(=O)c2cc(-c3cccs3)on2)cc1O [compound 1502] | 28.74 | 91.65 | – |
| O=C(NCCCN1CCCC1=O)c1cc(-c2cccs2)on1 [compound 1518] | 302.69 | 104.12 | – |
| C=C(C)Cn1c(CCO)nc2ccccc21 [compound 1368] | – | 106.63 | 9.25 |
| Cc1nc(-n2nc(C)c(CCC(=O)Nc3ccc(Br)cc3)c2O)sc1C [compound 1139] | – | 74.45 | 19.61 |
| Cc1nc(-n2nc(C)c(CC(=O)N3CCN(c4ccc(F)cc4)CC3)c2O)sc1C [compound 1125] | – | 78.39 | 82.95 |
| CCOC(=O)c1c(NC(=O)CCN2C(=O)c3ccccc3C2=O)sc2c1CCC(C)C2 (stereo not shown) [compound 1543] | 3.71 | 82.75 | – |
| CC1(C(=O)O)CC(=O)N=C2C=CC(Cl)=CN21 (stereo not shown) [compound 1329] | – | 94.31 | 3.63 |
| C/C(=N\NC(=O)c1ccccc1O)c1ccccc1O [compound 1530] | 30.46 | 96.99 | – |
| C/C(=N\NC(=O)Cc1ccc(Cl)cc1)c1ccccn1 [compound 1275] | – | 71.98 | 127.83 |
| Oc1c(C(Nc2ccccn2)c2ccccc2Cl)ccc2cccnc12 (stereo not shown) [compound 1094] | – | 56.64 | 32.08 |
| Cc1cc(C(=O)N/N=C/c2cc(Br)ccc2O)c(C)o1 [compound 1280] | – | 59.52 | 9.80 |

| Structure (SMILES) | Average Number of hTERT Transcripts [1] | Average Cell Viability after 24 Hours (% DMSO) (viable cells in culture) | Average Number of hTERT Transcripts ([1]; quantitative real-time RT-PCR) |
| --- | --- | --- | --- |
| C=CCNS(=O)(=O)c1ccc(C(=O)N2CCCCC2C)cc1 (stereo not shown) [compound 1370] | 11.58 | 107.18 | – |
| CCCCCC(=O)N/N=C(/C)c1ccccn1 [compound 1294] | – | 74.63 | 105.99 |
| CCCN(CCC)S(=O)(=O)c1cccc(C(=O)Nc2nc(-c3ccccn3)cs2)c1 [compound 1175] | – | 74.43 | 29.54 |
| CCc1nc2[nH]c3c(c(=O)n2n1)CCC3 [compound 1366] | – | 99.48 | 10.02 |
| Cc1cc(Br)ccc1NC(=O)Cn1ncc2c(=O)oc3ccccc3c21 [compound 1327] | – | 101.34 | 4.67 |
| Cc1nn2c(=O)c(Cc3cccc(Cl)c3)c(C)[nH]c2c1-c1ccccc1 [compound 1166] | – | 77.99 | 152.34 |
| CN1CCN(CCCNC(=O)c2cc(-c3cccs3)on2)CC1 [compound 1514] | 102.98 | 98.72 | – |
| Cc1cccc(Nc2nc3nonc3nc2Nc2ccc(F)cc2)c1C [compound 1231] | – | 37.70 | 61.08 |
| Cc1cccc(NC(=O)CSc2nnc(CNC(=O)c3ccc(Br)cc3)n2C)c1 [compound 1427] | 5.16 | 107.40 | – |
| O=C(Nc1nc(-c2ccccn2)cs1)c1ccc(Br)s1 [compound 1171] | – | 56.61 | 22.66 |
| O=C(NCCN1CCOCC1)c1cc(-c2cccs2)on1 [compound 1187] | – | 95.94 | 61.19 |
| Cc1nnc(SCc2cc(O)n(-c3nc4ccccc4s3)n2)s1 [compound 1141] | – | 71.38 | 19.39 |
| O=C(NCC1COc2ccccc2O1)c1ccc(NC(=O)C2COc3ccccc3O2)cc1 (stereo not shown) [compound 1430] | 23.55 | 88.00 | – |
| CCCC(=O)NC(c1ccc(SC)cc1)c1ccc2cccnc2c1O (stereo not shown) [compound 1010] | – | 86.63 | 35.70 |
| Cc1noc(-c2cc(Br)cc(Br)c2O)n1 [compound 1312] | – | 67.76 | 51.29 |
| O=C(Cc1ccccc1)NNC1=C(C(=O)C(F)(F)F)CCC1 [compound 1278] | – | 74.57 | 35.46 |
| CC(C)Cc1nnc(SCC(=O)Nc2ccc(Br)cn2)[nH]1 [compound 1350] | – | 98.43 | 5.91 |
| COc1cc(NC(=O)CSc2ccc(-c3ccccn3)nn2)cc(OC)c1 [compound 1259] | – | 60.54 | 10.70 |
